{
  "source": "paper PMC5756101",
  "about": "(Journal of neuro-oncology, 2017)",
  "key": {"clinical": {"experiment": "clinical", "settings": "human, in vivo"}, "[1]": {"tested_on": "patients with recurrent malignant glioma", "settings": "single agent, cited from earlier work"}, "GBM": {"tested_on": "GBM", "settings": "second line treatment of patients with GBM; cited from earlier work"}},
  "note": "Where two headings read alike, the source gives them in different places.",
  "data": [
    {"compound": "Cn1cncc1[C@@](N)(c1ccc(Cl)cc1)c1ccc2c(c1)c(-c1cccc(Cl)c1)cc(=O)n2C", "note": "[tipifarnib, Tipifarnib]", "values": [
      {"measurement": "change of AUC between daily or twice daily dosing", "setting": "clinical", "value": "do not seem to change significantly"},
      {"measurement": "AUC", "setting": "clinical; 100 mg", "value": "761.5 ± 468.8", "unit": "ng·h/mL"},
      {"measurement": "T1/2", "setting": "clinical; 100 mg", "value": "3.35 ± 1.29", "unit": "h"},
      {"measurement": "AUC", "setting": "clinical; 100 mg, AUC", "value": "904 ± 377", "unit": "ng·h/mL"},
      {"measurement": "half-life", "setting": "clinical; 100 mg, T1/2", "value": "6.57 ± 1.18", "unit": "h"},
      {"measurement": "predominant DLT", "setting": "[1]; patients not taking EIAEDs", "value": "myelosuppression"},
      {"measurement": "predominant DLT", "setting": "[1]; patients on EIAEDs", "value": "rash"},
      {"measurement": "AUC from 0–12 hours at MTD, those receiving EIAEDs compared with those not receiving EIAEDs", "setting": "[1]", "value": "approximately halved"}
    ]},
    {"compound": "bevacizumab", "values": [
      {"measurement": "6-months progression free survival (PFS)", "setting": "GBM", "value": "29–45%"}
    ]}
  ]
}
